Laboratory results reported in the NIST ThermoML archive (doi:10.1021/acs.jced.9b00028).
± gives the expanded uncertainty stated by the source.

Key:
[1] = Crystal; DSC
[2] = Molar enthalpy of transition or fusion; conditions: Crystal; DSC

Triple point temperature [1]	Molar enthalpy of transition or fusion [2]	Compound
395.48 ± 1.2 K	6.05 ± 0.227 kcal/mol	Oc1ccc(Cl)c2cccnc12 [5-chloro-8-hydroxyquinoline]
452.15 ± 1.2 K	9.51 ± 0.263 kcal/mol	Oc1c(Cl)cc(Cl)c2cccnc12 [5,7-dichloro-8-hydroxyquinoline]
